Experimental data taken from ChEMBL document CHEMBL1154717.
Activity calls are given as the source filed them. The rule behind the calls is not given here.

Columns and labels:
[1] = Oral bioavailability in Sprague-Dawley rat at 25 mg/kg; format: ADME, organism-based; details: in vivo
[2] = Terminal half life in Sprague-Dawley rat at 25 mg/kg, po; format: ADME, organism-based; design: dose 25 mg/kg, route oral; details: in vivo, read-out: beta t1/2 (converted)
[3] = Cmax in Sprague-Dawley rat at 25 mg/kg, po; format: ADME, organism-based; design: dose 25 mg/kg, route oral; details: in vivo
HCT-116 [4] = assay: cells; details: Homo sapiens, HCT-116, 96 h
[5] = biological target: T1, Tumour suppressor p53/oncoprotein Mdm2 (Homo sapiens) (UniProt P04637+Q00987); assay: Inhibition of MDM2-p53 interaction in human SJSA1 cells expressing wild type p53 assessed as increase in MDM2 protein level at 10 uM by Western blot; format: cell-based; details: SJSA-1
T1 sequence (P04637 whole entry, looked up): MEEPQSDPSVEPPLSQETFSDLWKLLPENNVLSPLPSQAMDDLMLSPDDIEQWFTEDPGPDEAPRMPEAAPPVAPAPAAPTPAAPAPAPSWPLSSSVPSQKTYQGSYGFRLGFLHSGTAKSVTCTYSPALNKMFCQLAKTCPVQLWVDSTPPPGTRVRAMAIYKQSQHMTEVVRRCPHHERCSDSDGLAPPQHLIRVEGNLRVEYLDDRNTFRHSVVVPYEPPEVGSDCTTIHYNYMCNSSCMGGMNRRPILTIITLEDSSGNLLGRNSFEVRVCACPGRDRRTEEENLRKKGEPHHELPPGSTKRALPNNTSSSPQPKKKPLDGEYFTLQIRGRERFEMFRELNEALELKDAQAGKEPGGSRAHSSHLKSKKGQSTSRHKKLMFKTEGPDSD
T1 sequence (Q00987 whole entry, looked up): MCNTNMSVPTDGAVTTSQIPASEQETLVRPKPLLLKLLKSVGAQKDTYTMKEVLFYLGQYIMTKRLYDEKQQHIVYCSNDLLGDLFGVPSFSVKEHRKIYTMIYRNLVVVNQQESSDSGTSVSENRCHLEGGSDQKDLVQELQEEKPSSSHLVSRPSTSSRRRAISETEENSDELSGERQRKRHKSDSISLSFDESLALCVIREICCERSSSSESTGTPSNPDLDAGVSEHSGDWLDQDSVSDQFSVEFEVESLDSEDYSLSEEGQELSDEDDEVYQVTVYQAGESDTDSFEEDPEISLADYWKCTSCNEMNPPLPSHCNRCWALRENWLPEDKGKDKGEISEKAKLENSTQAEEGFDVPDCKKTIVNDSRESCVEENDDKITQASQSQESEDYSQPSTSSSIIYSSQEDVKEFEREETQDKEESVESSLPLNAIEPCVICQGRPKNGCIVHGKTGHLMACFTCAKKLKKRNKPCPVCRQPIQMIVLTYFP

[6] = biological target: T1, Tumour suppressor p53/oncoprotein Mdm2 (Homo sapiens); assay: Inhibition of MDM2-p53 interaction in human SJSA1 cells expressing wild type p53 assessed as increase in p21 protein level at 10 uM by Western blot; format: cell-based; details: SJSA-1
SJSA-1 [7] = assay: Induction of cell death in human SJSA1 cells at 1. 25 uM after 2 days by trypan blue staining; format: functional
HCT-116 [8] = assay: cells; details: Homo sapiens, HCT-116, 96 h; remark: listed apart in the source
SJSA-1 [9] = assay: Induction of cell death in human SJSA1 cells by trypan blue staining; format: functional, cell-based
SAOS-2 = assay: Induction of cell death in human Saos2 cells deficient in wild type p53 at 10 uM by trypan blue staining; format: functional, cell-based
[10] = Cmax in Sprague-Dawley rat at 50 mg/kg, po; format: ADME, organism-based; design: dose 50 mg/kg, route oral; details: in vivo
Mus musculus [11] = assay: Toxicity in mouse xenografted with human SJSA1 cells assessed as weight loss at 300 mg/kg, po qd for 14 days relative to untreated control; format: organism-based, SJSA-1; design: dose 300 mg/kg, route oral; details: in vivo, 336 h
[12] = Oral bioavailability in Sprague-Dawley rat at 50 mg/kg; format: ADME, organism-based; details: in vivo
Rattus norvegicus [13] = assay: AUC (0 to t) in Sprague-Dawley rat at 50 mg/kg, po; format: ADME, organism-based, Plasma; design: dose 50 mg/kg, route oral; details: in vivo
Mus musculus [14] = assay: Toxicity in mouse xenografted with human SJSA1 cells assessed as occurrence of toxicity symptoms at 300 mg/kg, po qd for 14 days relative to untreated control; format: organism-based, SJSA-1; design: dose 300 mg/kg, route oral; details: in vivo, 336 h
[15] = Terminal half life in Sprague-Dawley rat at 50 mg/kg, po; format: ADME, organism-based; design: dose 50 mg/kg, route oral; details: in vivo, read-out: beta t1/2 (converted)
Rattus norvegicus [16] = assay: AUC (0 to t) in Sprague-Dawley rat at 25 mg/kg, po; format: ADME, organism-based, Plasma; design: dose 25 mg/kg, route oral; details: in vivo

Row | bioavailability [1] [%] | half-life [2] [h] | Cmax [3] [ng/mL] | IC50 (HCT-116 [4]) [µM] | IC50 (HCT-116 [8]) [µM] | SMILES | also measured
1 | 5 | 1.2 | 97 | 0.8 | – | COCCOCCNC(=O)[C@@H]1N[C@H](CC(C)(C)C)[C@]2(C(=O)Nc3cc(Cl)ccc32)[C@H]1c1cccc(Cl)c1F | –
2 | – | – | – | – | – | COc1ccc2c(c1)NC(=O)[C@]21[C@@H](CC(C)(C)C)N[C@@H](C(=O)N(C)C)[C@@H]1c1cccc(Br)c1 | Activity [5]: inactive; Activity [6]: inactive
3 | 14 | 7.1 | 120 | 0.4 | 7.3 | CN1CCC(CCNC(=O)[C@@H]2N[C@H](CC(C)(C)C)[C@]3(C(=O)Nc4cc(Cl)ccc43)[C@H]2c2cccc(Cl)c2F)CC1 | –
4 | 10 | 1.3 | 248 | 0.7 | – | CC(C)(C)C[C@H]1N[C@@H](C(=O)NCCN2CCOCC2)[C@H](c2cccc(Cl)c2F)[C@@]12C(=O)Nc1cc(Cl)ccc12 | –
5 | 31 | 3.4 | 3550 | 2.8 | 32.8 | CC(C)(C)C[C@H]1N[C@@H](C(=O)NCC[C@@H](O)CO)[C@H](c2cccc(Cl)c2)[C@@]12C(=O)Nc1cc(Cl)c(F)cc12 | AUC (Rattus norvegicus [16]): 11700 ng·h/mL
6 | 18 | 3.2 | 2070 | 1.3 | 23.6 | CC(C)(C)C[C@H]1N[C@@H](C(=O)NC[C@H](O)CO)[C@H](c2cccc(Cl)c2)[C@@]12C(=O)Nc1cc(Cl)c(F)cc12 | –
7 | 31 | 3.8 | 274 | 0.4 | – | CN1CCN(CCNC(=O)[C@@H]2N[C@H](CC(C)(C)C)[C@]3(C(=O)Nc4cc(Cl)ccc43)[C@H]2c2cccc(Cl)c2F)CC1 | –
8 | 19 | 3 | 805 | 0.8 | – | CC(C)(C)C[C@H]1N[C@@H](C(=O)NCC[C@H](O)CO)[C@H](c2cccc(Cl)c2)[C@@]12C(=O)Nc1cc(Cl)ccc12 | –

Row | SMILES | bioavailability [1] [%] | half-life [2] [h] | Cmax [3] [ng/mL] | IC50 (HCT-116 [4]) [µM] | IC50 (HCT-116 [8]) [µM] | also measured
9 | CC(C)(C)C[C@H]1N[C@@H](C(=O)NCC[C@H](O)CO)[C@H](c2cccc(Cl)c2)[C@@]12C(=O)Nc1cc(Cl)c(F)cc12 | 65 | 1.4 | 3750 | 1.1 | 24.8 | Activity (SJSA-1 [7]): 20%; Activity (SJSA-1 [9]): Dose-dependent effect
10 | CC(C)(C)C[C@H]1N[C@@H](C(=O)NCC[C@H](O)CO)[C@H](c2cccc(Cl)c2F)[C@@]12C(=O)Nc1cc(Cl)ccc12 | – | – | – | 0.4 | 16 | Activity (SAOS-2): inactive; Cmax [10]: 1510 ng/mL; Activity (Mus musculus [11]): Non-toxic; Activity (SJSA-1 [7]): 50%; bioavailability [12]: 21%; AUC (Rattus norvegicus [13]): 8770 ng·h/mL; Activity (SJSA-1 [9]): Dose-dependent effect; Activity (Mus musculus [14]): Non-toxic; half-life [15]: 3.9 h
